In ChEMBL document CHEMBL1944578, “Synthesis and anticonvulsant activity of novel 2,6-diketopiperazine derivatives. Part 2: Perhydropyrido[1,2-a]pyrazines” (Eur J Med Chem, 2012):
Active and inactive are the calls of the source. The rule behind the calls is not given here.

How the values were obtained:
Mus musculus [1] = assay: Anticonvulsant activity in Carworth farms No.1 albino mouse assessed as protection against maximum electroshock at 30 mg/kg, ip measured after 0.5 hrs; type: functional, organism-based; parameters: dose 30 mg/kg
Mus musculus [2] = assay: Anticonvulsant activity in Carworth farms No.1 albino mouse assessed as protection against maximum electroshock at 100 mg/kg, ip measured after 0.5 hrs; type: functional, organism-based; parameters: dose 100 mg/kg
Mus musculus [3] = assay: Anticonvulsant activity in Carworth farms No.1 albino mouse assessed as protection against maximum electroshock at 300 mg/kg, ip measured after 0.5 hrs; type: functional, organism-based; parameters: dose 300 mg/kg
Mus musculus [4] = assay: Anticonvulsant activity in Carworth farms No.1 albino mouse assessed as protection against maximum electroshock at 30 mg/kg, ip measured after 4 hrs; type: functional, organism-based; parameters: dose 30 mg/kg
Mus musculus [5] = assay: Anticonvulsant activity in Carworth farms No.1 albino mouse assessed as protection against maximum electroshock at 100 mg/kg, ip measured after 4 hrs; type: functional, organism-based; parameters: dose 100 mg/kg
Mus musculus [6] = assay: Anticonvulsant activity in Carworth farms No.1 albino mouse assessed as protection against maximum electroshock at 300 mg/kg, ip measured after 4 hrs; type: functional, organism-based; parameters: dose 300 mg/kg
Mus musculus [7] = assay: Anticonvulsant activity in Carworth farms No.1 albino mouse assessed as protection against subcutaneous metrazole-induced seizures at 30 mg/kg, ip measured after 0.5 hrs; type: functional, organism-based; parameters: dose 30 mg/kg
Mus musculus [8] = assay: Anticonvulsant activity in Carworth farms No.1 albino mouse assessed as protection against subcutaneous metrazole-induced seizures at 100 mg/kg, ip measured after 0.5 hrs; type: functional, organism-based; parameters: dose 100 mg/kg
Mus musculus [9] = assay: Anticonvulsant activity in Carworth farms No.1 albino mouse assessed as protection against subcutaneous metrazole-induced seizures at 300 mg/kg, ip measured after 0.5 hrs; type: functional, organism-based; parameters: dose 300 mg/kg
Mus musculus [10] = assay: Anticonvulsant activity in Carworth farms No.1 albino mouse assessed as protection against subcutaneous metrazole-induced seizures at 30 mg/kg, ip measured after 4 hrs; type: functional, organism-based; parameters: dose 30 mg/kg
Mus musculus [11] = assay: Anticonvulsant activity in Carworth farms No.1 albino mouse assessed as protection against subcutaneous metrazole-induced seizures at 100 mg/kg, ip measured after 4 hrs; type: functional, organism-based; parameters: dose 100 mg/kg
Mus musculus [12] = assay: Anticonvulsant activity in Carworth farms No.1 albino mouse assessed as protection against subcutaneous metrazole-induced seizures at 300 mg/kg, ip measured after 4 hrs; type: functional, organism-based; parameters: dose 300 mg/kg
Mus musculus [13] = assay: Neurotoxicity in Carworth farms No.1 albino mouse assessed as neurological impairment at 30 mg/kg, ip measured after 0.5 hrs; type: toxicity, organism-based; parameters: dose 30 mg/kg, route intraperitoneal; conditions: in vivo
Mus musculus [14] = assay: Neurotoxicity in Carworth farms No.1 albino mouse assessed as neurological impairment at 100 mg/kg, ip measured after 0.5 hrs; type: toxicity, organism-based; parameters: dose 100 mg/kg, route intraperitoneal; conditions: in vivo
Mus musculus [15] = assay: Neurotoxicity in Carworth farms No.1 albino mouse assessed as neurological impairment at 30 mg/kg, ip measured after 4 hrs; type: toxicity, organism-based; parameters: dose 30 mg/kg, route intraperitoneal; conditions: in vivo
Mus musculus [16] = assay: Neurotoxicity in Carworth farms No.1 albino mouse assessed as neurological impairment at 100 mg/kg, ip measured after 4 hrs; type: toxicity, organism-based; parameters: dose 100 mg/kg, route intraperitoneal; conditions: in vivo
Mus musculus [17] = assay: Neurotoxicity in Carworth farms No.1 albino mouse assessed as neurological impairment at 300 mg/kg, ip measured after 4 hrs; type: toxicity, organism-based; parameters: dose 300 mg/kg, route intraperitoneal; conditions: in vivo
Mus musculus [18] = assay: Neurotoxicity in Carworth farms No.1 albino mouse assessed as inability to grasp rotarod at 300 mg/kg, ip measured after 0.5 hrs; type: toxicity, organism-based; parameters: dose 300 mg/kg, route intraperitoneal; conditions: in vivo
Mus musculus [19] = assay: Anticonvulsant activity in ip dosed Carworth farms No.1 albino mouse assessed as protection against maximum electroshock; type: functional
Mus musculus [20] = assay: Anticonvulsant activity in ip dosed Carworth farms No.1 albino mouse assessed as protection against subcutaneous metrazole-induced seizures; type: functional
[21] = Neurotoxicity in ip dosed Carworth farms No.1 albino mouse assessed as inability to grasp rotarod measured after 0.25 hrs; type: toxicity, organism-based; conditions: in vivo
Rattus norvegicus [22] = assay: Anticonvulsant activity in Sprague-Dawley rat assessed as protection against maximum electroshock at 30 mg/kg, po measured after 0.25 hrs; type: functional, organism-based; parameters: dose 30 mg/kg
Rattus norvegicus [23] = assay: Anticonvulsant activity in Sprague-Dawley rat assessed as protection against maximum electroshock at 30 mg/kg, po measured after 0.5 hrs; type: functional, organism-based; parameters: dose 30 mg/kg
Rattus norvegicus [24] = assay: Anticonvulsant activity in Sprague-Dawley rat assessed as protection against maximum electroshock at 30 mg/kg, po measured after 1 hr; type: functional, organism-based; parameters: dose 30 mg/kg
Rattus norvegicus [25] = assay: Anticonvulsant activity in Sprague-Dawley rat assessed as protection against maximum electroshock at 30 mg/kg, po measured after 2 hrs; type: functional, organism-based; parameters: dose 30 mg/kg
Rattus norvegicus [26] = assay: Anticonvulsant activity in Sprague-Dawley rat assessed as protection against maximum electroshock at 30 mg/kg, po measured after 4 hrs; type: functional, organism-based; parameters: dose 30 mg/kg
Rattus norvegicus [27] = assay: Neurotoxicity in Sprague-Dawley rat assessed as neurological impairment at 30 mg/kg, po measured after 0.25 hrs; type: toxicity, organism-based; parameters: dose 30 mg/kg, route oral; conditions: in vivo
Rattus norvegicus [28] = assay: Neurotoxicity in Sprague-Dawley rat assessed as neurological impairment at 30 mg/kg, po measured after 0.5 hrs; type: toxicity, organism-based; parameters: dose 30 mg/kg, route oral; conditions: in vivo
Rattus norvegicus [29] = assay: Neurotoxicity in Sprague-Dawley rat assessed as neurological impairment at 30 mg/kg, po measured after 1 hr; type: toxicity, organism-based; parameters: dose 30 mg/kg, route oral; conditions: in vivo
Rattus norvegicus [30] = assay: Neurotoxicity in Sprague-Dawley rat assessed as neurological impairment at 30 mg/kg, po measured after 2 hrs; type: toxicity, organism-based; parameters: dose 30 mg/kg, route oral; conditions: in vivo
Rattus norvegicus [31] = assay: Neurotoxicity in Sprague-Dawley rat assessed as neurological impairment at 30 mg/kg, po measured after 4 hrs; type: toxicity, organism-based; parameters: dose 30 mg/kg, route oral; conditions: in vivo
Mus musculus [32] = assay: Anticonvulsant activity in Carworth farms No.1 albino mouse assessed as protection against 6 Hz electric current-induced seizure at 100 mg/kg, ip measured after 0.25 hrs; type: functional, organism-based; parameters: dose 100 mg/kg
Mus musculus [33] = assay: Anticonvulsant activity in Carworth farms No.1 albino mouse assessed as protection against 6 Hz electric current-induced seizure at 100 mg/kg, ip measured after 0.5 hrs; type: functional, organism-based; parameters: dose 100 mg/kg
Mus musculus [34] = assay: Anticonvulsant activity in Carworth farms No.1 albino mouse assessed as protection against 6 Hz electric current-induced seizure at 100 mg/kg, ip measured after 1 hrs; type: functional, organism-based; parameters: dose 100 mg/kg
Mus musculus [35] = assay: Anticonvulsant activity in Carworth farms No.1 albino mouse assessed as protection against 6 Hz electric current-induced seizure at 100 mg/kg, ip measured after 2 hrs; type: functional, organism-based; parameters: dose 100 mg/kg
Mus musculus [36] = assay: Anticonvulsant activity in Carworth farms No.1 albino mouse assessed as protection against 6 Hz electric current-induced seizure at 100 mg/kg, ip measured after 4 hrs; type: functional, organism-based; parameters: dose 100 mg/kg
Mus musculus [37] = assay: Neurotoxicity in Carworth farms No.1 albino mouse assessed as neurological impairment at 100 mg/kg, ip measured after 0.25 hrs; type: toxicity, organism-based; parameters: dose 100 mg/kg, route intraperitoneal; conditions: in vivo
Mus musculus [38] = assay: Neurotoxicity in Carworth farms No.1 albino mouse assessed as neurological impairment at 100 mg/kg, ip measured after 1 hr; type: toxicity, organism-based; parameters: dose 100 mg/kg, route intraperitoneal; conditions: in vivo
Mus musculus [39] = assay: Neurotoxicity in Carworth farms No.1 albino mouse assessed as neurological impairment at 100 mg/kg, ip measured after 2 hr; type: toxicity, organism-based; parameters: dose 100 mg/kg, route intraperitoneal; conditions: in vivo
Mus musculus [40] = assay: Anticonvulsant activity in ip dosed Carworth farms No.1 albino mouse assessed as protection against 6 Hz electric current-induced seizure measured after 0.25 hrs; type: functional
Rattus norvegicus [41] = assay: Anticonvulsant activity in Sprague-Dawley rat assessed as protection against pilocarpine-induced status at 600 mg/kg, ip measured after 0.5 hrs; type: functional, organism-based; parameters: dose 600 mg/kg
Rattus norvegicus [42] = assay: Toxicity in Sprague-Dawley rat assessed as mortality at 600 mg/kg, ip measured after 0.5 hrs; type: organism-based; parameters: dose 600 mg/kg, route intraperitoneal; conditions: in vivo
Rattus norvegicus [43] = assay: Toxicity in Sprague-Dawley rat assessed as body weight change in unprotected animal at 600 mg/kg, ip measured after 0.5 hrs; type: organism-based; parameters: dose 600 mg/kg, route intraperitoneal; conditions: in vivo
Rattus norvegicus [44] = assay: Toxicity in Sprague-Dawley rat assessed as body weight change in protected animals at 600 mg/kg, ip measured after 0.5 hrs; type: organism-based; parameters: dose 600 mg/kg, route intraperitoneal; conditions: in vivo
Mus musculus [45] = species on record: Mus musculus; assay: Anticonvulsant activity in maximum electroshock-induced Carworth farms No.1 albino mouse assessed as time of peak effect; type: functional
Mus musculus [46] = species on record: Mus musculus; assay: Anticonvulsant activity in electric shock-induced Carworth farms No.1 albino mouse assessed as time of peak effect; type: functional
Mus musculus [47] = assay: Neurotoxicity in Carworth farms No.1 albino mouse assessed as neurological impairment at 300 mg/kg, ip measured after 0.5 hrs; type: toxicity, organism-based; parameters: dose 300 mg/kg, route intraperitoneal; conditions: in vivo

Structure (SMILES): O=C1NC(=O)[C@H](c2ccccc2)N2CCCC[C@H]12
- Activity (Mus musculus [1]): inactive
- Activity (Mus musculus [2]): Active
- Activity (Mus musculus [3]): Active
- Activity (Mus musculus [4]): inactive
- Activity (Mus musculus [5]): inactive
- Activity (Mus musculus [6]): inactive
- Activity (Mus musculus [7]): inactive
- Activity (Mus musculus [8]): inactive
- Activity (Mus musculus [9]): Active
- Activity (Mus musculus [10]): inactive
- Activity (Mus musculus [11]): inactive
- Activity (Mus musculus [12]): inactive
- Activity (Mus musculus [13]): Non-toxic
- Activity (Mus musculus [14]): Toxic
- Activity (Mus musculus [15]): Non-toxic
- Activity (Mus musculus [16]): Non-toxic
- Activity (Mus musculus [17]): Non-toxic
- Activity (Mus musculus [18]): Toxic
- ED50 (Mus musculus [19]): 95.7 mg/kg
- ED50 (Mus musculus [20]): 99.2 mg/kg
- TD50 at 0.25 h [21]: 151 mg/kg
- Activity (Rattus norvegicus [22]): inactive
- Activity (Rattus norvegicus [23]): inactive
- Activity (Rattus norvegicus [24]): inactive
- Activity (Rattus norvegicus [25]): inactive
- Activity (Rattus norvegicus [26]): inactive
- Activity (Rattus norvegicus [27]): Non-toxic
- Activity (Rattus norvegicus [28]): Non-toxic
- Activity (Rattus norvegicus [29]): Non-toxic
- Activity (Rattus norvegicus [30]): Non-toxic
- Activity (Rattus norvegicus [31]): Non-toxic
- Activity (Mus musculus [32]): Active
- Activity (Mus musculus [33]): Active
- Activity (Mus musculus [34]): inactive
- Activity (Mus musculus [35]): inactive
- Activity (Mus musculus [36]): inactive
- Activity (Mus musculus [37]): Non-toxic
- Activity (Mus musculus [38]): Non-toxic
- Activity (Mus musculus [39]): Non-toxic
- ED50 (Mus musculus [40]): 32.3 mg/kg
- Activity (Rattus norvegicus [41]): inactive
- Activity (Rattus norvegicus [42]): Toxic
- Activity (Rattus norvegicus [43]): -31 g
- Activity (Rattus norvegicus [44]): -30 g
- Time (Mus musculus [45]): 0.5 h
- Time (Mus musculus [46]): 0.25 h

Structure (SMILES): CCOC(=O)CN1C(=O)[C@H](c2ccccc2)N2CCCC[C@H]2C1=O
- Activity (Mus musculus [1]): inactive
- Activity (Mus musculus [2]): inactive
- Activity (Mus musculus [3]): inactive
- Activity (Mus musculus [4]): inactive
- Activity (Mus musculus [5]): inactive
- Activity (Mus musculus [6]): inactive
- Activity (Mus musculus [7]): inactive
- Activity (Mus musculus [8]): inactive
- Activity (Mus musculus [9]): inactive
- Activity (Mus musculus [10]): inactive
- Activity (Mus musculus [11]): inactive
- Activity (Mus musculus [12]): inactive
- Activity (Mus musculus [13]): Non-toxic
- Activity (Mus musculus [14]): Non-toxic
- Activity (Mus musculus [47]): Non-toxic
- Activity (Mus musculus [15]): Non-toxic
- Activity (Mus musculus [16]): Non-toxic
- Activity (Mus musculus [17]): Non-toxic
- Activity (Mus musculus [32]): Active
- Activity (Mus musculus [33]): Active
- Activity (Mus musculus [34]): Active
- Activity (Mus musculus [35]): inactive
- Activity (Mus musculus [36]): inactive
- Activity (Mus musculus [37]): Non-toxic
- Activity (Mus musculus [38]): Non-toxic
- Activity (Mus musculus [39]): Non-toxic
- ED50 (Mus musculus [40]): 55.3 mg/kg
- Time (Mus musculus [46]): 0.25 h
